Data on 40 molecules can be found in ChEMBL document CHEMBL4219048, “Identification of cytotoxic, glutathione-reactive moieties inducing accumulation of reactive oxygen species via glutathione depletion” (Bioorg Med Chem, 2018).

The test system of series [1] is U2OS. The series can be described thus: Induction of GSH depletion in human U2OS cells assessed as GSH content at 10 uM by GSH/GSSG-Glo assay relative to DMSO. It counts as functional.
The test system of series [2] is U2OS. The series can be described thus: Induction of ROS levels in human U2OS cells at 10 uM after 30 mins by CM-H2DCFDA/Hoechst-based fluorescence microscopic analysis relative to 10 uM CDNB. It counts as functional.
The subject of series [3] is HeLa. The series can be described thus: Induction of GSH depletion in human HeLa cells at 0.1 to 100 uM after 1 hr by GSH/GSSG-glo assay relative to control. It counts as functional, cell-based.
A short description of series [4]: GSH reactivity in PBS buffer assessed as compound-GSH conjugate formation at 100 uM after 1 hr in presence of GSH by UHPLC/ESI-MS method. It is filed as physicochemical.
The subject of series [5] is HeLa. The series can be described thus: Induction of ROS levels in human HeLa cells at 10 uM after 1 hr by CM-H2DCFDA/Hoechst-based fluorescence microscopic analysis relative to 10 uM CDNB. It counts as functional.
Series [6] deals with HeLa. The experiment in a line: Induction of ROS induced cytotoxicity in human HeLa cells assessed as morphological changes at 10 uM incubated for 24 hrs measured after 2 hrs by propidium iodide-staining based real time live cell imaging analysis. It is filed as functional.
Series [7] relates to HeLa. The experiment in a line: Induction of GSH depletion in human HeLa cells at 10 uM after 1 hr by Ellman's reagent based assay. It counts as functional.
For series [8], the system named is HeLa. The experiment in a line: Induction of ROS induced cytotoxicity in human HeLa cells assessed as reduction in cell viability at 10 uM incubated for 24 hrs measured at 2 hrs interval by propidium iodide-staining based real time live cell imaging analysis. It is filed as functional.
Series [9] concerns HeLa. The experiment in a line: Induction of GSH depletion in human HeLa cells at 20 uM after 1 hr by Ellman's reagent based assay. It counts as functional.
Series [10] deals with HeLa. The series can be described thus: Induction of ROS induced cytotoxicity in human HeLa cells assessed as reduction in cell viability at 2.5 to 20 uM incubated for 24 hrs measured at 2 hrs interval by propidium iodide-staining based live cell imaging analysis. It counts as functional.
For series [11], the system named is HeLa. The experiment in a line: Induction of ROS induced cytotoxicity in human HeLa cells at 5 uM administered after 1 hr pretreatment with NAC incubated for 24 hrs measured at 2 hrs interval by propidium iodide staining based real time live cell imaging analysis. It is filed as functional.
Series [12] has as its system HeLa. The series can be described thus: Induction of ROS induced cytotoxicity in human HeLa cells assessed as reduction in cell viability at 5 uM incubated for 24 hrs measured at 2 hrs interval by propidium iodide-staining based real time live cell imaging analysis. It counts as functional.
Series [13] concerns HeLa. The series can be described thus: Induction of ROS induced cytotoxicity in human HeLa cells at 2.5 uM incubated for 24 hrs in presence of BSO measured at 2 hrs interval by propidium iodide staining based real time live cell imaging analysis. It is filed as functional.
A short description of series [14]: GSH reactivity in PBS buffer assessed as retention time for compound-GSH conjugate formation at 100 uM after 1 hr in presence of GSH by UHPLC/ESI-MS method. It is filed as physicochemical.
Series [15] relates to HeLa. The experiment in a line: Induction of GSH depletion in human HeLa cells at 5 uM after 1 hr by Ellman's reagent based assay. It counts as functional. (Ellman's reagent forms a yellow product with free thiols.)
Series [16] deals with HeLa. The series can be described thus: Induction of ROS induced cytotoxicity in human HeLa cells at 10 uM administered after 1 hr pretreatment with NAC incubated for 24 hrs measured at 2 hrs interval by propidium iodide staining based real time live cell imaging analysis. It is filed as functional.
The subject of series [17] is HeLa. The series can be described thus: Induction of GSH depletion in human HeLa cells after 1 hr by GSH/GSSG-glo assay relative to control. It counts as functional, cell-based.
Series [18] has as its system HeLa. The series can be described thus: Induction of ROS induced cytotoxicity in human HeLa cells at 5 uM incubated for 24 hrs in presence of BSO measured at 2 hrs interval by propidium iodide staining based real time live cell imaging analysis. It is filed as functional.

Activity calls are given as the source filed them. The calls are words filed in the database; no cut-off is given here.

In the case of `Clc1ncnc2c1oc1ccccc12`, the figures for the Activity in the series with U2OS [1] and with U2OS [2] were 25.49% and 116%, respectively.

Consider `O=C1CC(c2cccc3ccccc23)CC1=O`, for which the Activity in the series on U2OS [1] was 24.43%; in the series with U2OS [2], 110%.

Regarding `COCCOc1ccc(CNC(=O)c2nc(Cl)c(Cl)c(Cl)c2Cl)cc1`, the outcome with HeLa [3] was Active.

With `O=C(NCc1ccc(Cl)cc1)c1c(Cl)nc(Cl)c(Cl)c1Cl`, the Activity in the series on U2OS [1] stood at 30.39%; in the series on U2OS [2] it was 87%. Further, the result in the series with HeLa [3] was Active.

With `O=C(Cn1ncc(Cl)c(Cl)c1=O)N1CCCC1c1ccc2c(c1)OCCO2` (configuration not stated), the figures for the Activity result (in series [4]; in the series with HeLa [5]) were “Active” and 78.23%, respectively. The result in the series with HeLa [6], in the series with HeLa [7], in the series on HeLa [3] and in the series on HeLa [8] was Active.

Take `O=C(CN1CCCC1c1ccc2c(c1)OCCO2)Cn1ncc(Cl)c(Cl)c1=O` (configuration not stated): the Activity came to 19.2% in the series with U2OS [1] and 163% with U2OS [2].

Regarding `COc1ccc2c(c1)CCCN2S(=O)(=O)c1ccc(-n2ncc(Cl)c(Cl)c2=O)cc1`, the Activity in the series on U2OS [1] was 29.49%; with U2OS [2], 52%.

With `N#Cc1c(Cl)nc(N2CCOCC2)c(Cl)c1Cl`, the values for the Activity with U2OS [1] and with U2OS [2] were 22.32% and 82%, respectively.

With `CCN(CC)C(=O)c1cccc(NS(=O)(=O)c2ccc(-n3ncc(Cl)c(Cl)c3=O)cc2)c1`, the Activity with U2OS [1] turned out to be 30.8%; with U2OS [2], 98%. The result in the series with HeLa [3] was Active.

As for `CC(NC(=O)Cn1ncc(Cl)c(Cl)c1=O)c1ccc(F)cc1` (configuration not stated), the Activity in the series on U2OS [1] came to 22.59%; in the series with U2OS [2] it was 79%.

On to `NC(=O)C1CCN(C(=O)c2nc(Cl)c(Cl)c(Cl)c2Cl)CC1`, for which the Activity result in [4] is “Active”; in the series with U2OS [1] it was 24.15%; with HeLa [5], 98.33%; with U2OS [2], 55%. The outcome in the series with HeLa [7], in the series on HeLa [3] and with HeLa [8] was Active.

As to `O=c1c(Cl)c(Cl)cnn1-c1ccc(S(=O)(=O)NCc2cc(-c3ccccc3)no2)cc1`, the Activity in the series on U2OS [1] was 24.31%; in the series with U2OS [2], 129%.

As for `O=C(Cn1ncc(Cl)c(Cl)c1=O)N(C1=CCCCC1)C1CC1`, the Activity with U2OS [1] is reported as 38.9%; in the series with U2OS [2] it was 70%.

Consider `CC(=O)c1ccc(N2CCN(C(=O)Cn3ncc(Cl)c(Cl)c3=O)CC2)c(F)c1`, for which the figures for the Activity in the series with U2OS [1] and with U2OS [2] were 30.95% and 113%, respectively. In the series on HeLa [3], the outcome was Active.

Consider `CCOC(=O)C1CCN(C(=O)Cn2ncc(Cl)c(Cl)c2=O)CC1`, for which the Activity in the series on U2OS [1] is 35.47%; in the series with U2OS [2] it was 95%.

Turning to `O=c1cc(Cn2ncc(Cl)c(Cl)c2=O)[nH]c(=O)[nH]1`, the values for the Activity result (in series [4]; in the series with HeLa [5]; in the series on HeLa [9]) were “Active”, 9.73% and 21.3%, respectively. Besides, the result with HeLa [7] and in the series with HeLa [10] was inactive. For the same molecule, the outcome with HeLa [3] was Active.

Turning to `COc1ccc2nc(NC(=O)c3nc(S(C)(=O)=O)ncc3Cl)sc2c1`, the Activity stood at 30.72% in the series with U2OS [1] and 107% in the series on U2OS [2].

Regarding `O=C(Cn1ncc(Cl)c(Cl)c1=O)N(Cc1ccco1)CC(F)(F)F`, the values for the Activity with U2OS [1] and with U2OS [2] were 35.84% and 75%, respectively.

For `O=[N+]([O-])c1ccc(Cl)c([N+](=O)[O-])c1`, in the series on HeLa [7], the result was Active.

On to `O=c1c(Cl)c(Cl)cnn1Cc1nc2ccccc2n1C(F)F`, for which the Activity is listed as 31.86% in the series with U2OS [1] and 111% with U2OS [2].

On to `CCCS(=O)(=O)c1ncc(Cl)c(C(=O)Nc2nc3ccc(F)cc3s2)n1`, for which the Activity is reported as 11.22% in the series with U2OS [1] and 97% with U2OS [2].

For `CCCS(=O)(=O)c1ncc(Cl)c(C(=O)Nc2nc(C)c(C(=O)OCC(C)C)s2)n1`, the Activity was found to be 23.2% with U2OS [1] and 130% in the series on U2OS [2].

For `Cc1cccc(NC(=O)c2nc(Cl)c(Cl)c(Cl)c2Cl)c1C`, in the series on HeLa [3], the outcome was Active.

Take `COc1cccc(CNC(=O)COC(=O)c2nc(Cl)c(Cl)c(Cl)c2Cl)c1`: the Activity entry in series [4] is “Active”; with HeLa [5], 12.14%. The outcome with HeLa [7], in the series on HeLa [3] and in the series on HeLa [10] was inactive.

`CC(C)N(C(=O)Cn1ncc(Br)c(Br)c1=O)c1ccccc1`: the Activity in the series on U2OS [1] turned out to be 20.43%; in the series on U2OS [2], 67%. Moreover, the outcome with HeLa [3] was Active.

With `CCS(=O)(=O)c1ncc(Cl)c(C(=O)Nc2ccc(-c3nc4ccc(C)cc4s3)cc2)n1`, the Activity amounted to 37.49% in the series on U2OS [1] and 127% with U2OS [2].

As to `CN(C(=O)Cn1ncc(Br)c(Br)c1=O)C1CCCc2ccccc21` (configuration not stated), the Activity entry in series [4] was “Active”; with U2OS [1], 9.56%; in the series on HeLa [5], 63.96%; in the series with U2OS [2], 60%; in the series on HeLa [7], 38%; in the series with HeLa [15] it was 23.1%. Moreover, the outcome with HeLa [6], in the series on HeLa [12], in the series on HeLa [13] and in the series on HeLa [3] was Active. The result in the series with HeLa [11] was inactive. Also, in series [14], the Retention_time is 3.41 min.

For the molecule `O=c1c(Br)c(Br)cnn1Cc1ccccc1`, the Activity with U2OS [1] was 37.49%; with U2OS [2], 77%. In addition, the result in the series on HeLa [3] was Active.

With `CC(=O)c1c(C)[nH]c(C(=O)Cn2ncc(Cl)c(Cl)c2=O)c1C`, the values for the Activity in the series on U2OS [1] and in the series on U2OS [2] were 32.83% and 100%, respectively. The outcome with HeLa [3] was Active.

Regarding `O=C(Cn1ncc(Br)c(Br)c1=O)C12CC3CC(CC(C3)C1)C2`, the Activity in the series on U2OS [1] came to 13.2%; with U2OS [2] it was 88%. Further, the outcome in the series with HeLa [3] was Active.

On to `COc1ccc(OC)c(NC(=O)c2c(Cl)nc(Cl)c(Cl)c2Cl)c1`, for which the Activity entry is “Active” in series [4]; 39.27% in the series with U2OS [1]; 73.78% in the series on HeLa [5]; 69% with U2OS [2]; “Dose-dependent effect” with HeLa [17]. Besides, the outcome with HeLa [16], in the series on HeLa [7] and in the series with HeLa [3] was inactive. For the same molecule, the outcome in the series with HeLa [6], in the series on HeLa [12] and with HeLa [18] was Active. Moreover, in series [14], the Retention_time is 3.48 min.

With `O=C(Nc1ccccc1Br)c1c(Cl)nc(Cl)c(Cl)c1Cl`, the Activity with U2OS [1] amounted to 36.07%; in the series on U2OS [2], 91%. For the same molecule, in the series with HeLa [3], the result was Active.

For `Cc1cccc(CS(=O)(=O)c2ncc(Cl)c(C(=O)Nc3nc4ccc(C)cc4s3)n2)c1`, the results for the Activity in the series with U2OS [1] and with U2OS [2] were 37.21% and 106%, respectively.

On to `O=C(Cn1ncc(Cl)c(Cl)c1=O)N1CCc2cc(S(=O)(=O)N3CCCCC3)ccc21`, for which the Activity with U2OS [1] was found to be 35.26%; in the series on U2OS [2], 104%.

As for `CCS(=O)(=O)c1ncc(Cl)c(C(=O)Nc2c(C(=O)Nc3ccccc3)oc3ccccc23)n1`, the Activity in the series with U2OS [1] was found to be 39.62%; in the series with U2OS [2], 83%.

With `CCCNC(=O)c1c(Cl)nc(Cl)c(Cl)c1Cl`, the result in the series on HeLa [3] was Active.

Regarding `COc1ccc(N(C)C(=O)c2nc(Cl)c(Cl)c(Cl)c2Cl)cc1OC`, the outcome with HeLa [3] was Active.

Take `O=c1c(Br)c(Br)cnn1CC(O)COc1cccc(Br)c1` (configuration not stated): the outcome with HeLa [3] was Active.

Regarding `O=C(c1c(Cl)nc(Cl)c(Cl)c1Cl)N1CCOCC1`, in the series on HeLa [3], the result was Active.

As to `Cc1nnc(NC(=O)c2nc(S(=O)(=O)Cc3ccccc3)ncc2Cl)s1`, the Activity with U2OS [1] stood at 34.32%; with U2OS [2] it was 92%.
